Six molecules from BindingDB's records for PubMed 10688601 (Virginia Commonwealth University, 2000) can be followed below.

The target in assay [1] is Cannabinoid receptor 2 (Mus musculus, UniProt P47936).
For assay [2], the target named is T1, Cannabinoid receptor 2 (Rattus norvegicus, UniProt Q9QZN9).
T1 sequence (Q9QZN9 whole entry): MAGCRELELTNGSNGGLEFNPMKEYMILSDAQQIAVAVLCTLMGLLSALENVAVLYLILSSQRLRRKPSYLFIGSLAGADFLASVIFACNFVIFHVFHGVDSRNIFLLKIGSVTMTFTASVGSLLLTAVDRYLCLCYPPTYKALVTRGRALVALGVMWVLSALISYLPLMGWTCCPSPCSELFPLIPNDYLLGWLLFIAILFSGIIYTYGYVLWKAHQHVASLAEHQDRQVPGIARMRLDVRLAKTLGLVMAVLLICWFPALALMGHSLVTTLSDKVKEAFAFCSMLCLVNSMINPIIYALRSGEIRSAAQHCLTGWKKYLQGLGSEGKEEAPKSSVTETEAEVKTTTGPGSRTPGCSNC

Assay [3] addresses Cannabinoid receptor 2 (Homo sapiens, UniProt P34972).

SMILES strings stand for the structures.

Cannabinoid receptor 2 (Mus musculus, UniProt P47936), sequence (P47936 whole entry): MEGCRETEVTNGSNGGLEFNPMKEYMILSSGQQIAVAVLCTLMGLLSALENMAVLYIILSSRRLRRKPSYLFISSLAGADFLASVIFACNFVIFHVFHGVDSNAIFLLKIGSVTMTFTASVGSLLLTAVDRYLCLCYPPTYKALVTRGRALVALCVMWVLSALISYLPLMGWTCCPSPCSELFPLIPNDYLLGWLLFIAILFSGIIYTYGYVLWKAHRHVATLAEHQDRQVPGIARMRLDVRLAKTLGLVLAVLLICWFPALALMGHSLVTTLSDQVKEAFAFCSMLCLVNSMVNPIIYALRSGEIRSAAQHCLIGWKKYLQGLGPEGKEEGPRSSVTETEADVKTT
Cannabinoid receptor 2 (Homo sapiens, UniProt P34972), sequence (P34972 whole entry): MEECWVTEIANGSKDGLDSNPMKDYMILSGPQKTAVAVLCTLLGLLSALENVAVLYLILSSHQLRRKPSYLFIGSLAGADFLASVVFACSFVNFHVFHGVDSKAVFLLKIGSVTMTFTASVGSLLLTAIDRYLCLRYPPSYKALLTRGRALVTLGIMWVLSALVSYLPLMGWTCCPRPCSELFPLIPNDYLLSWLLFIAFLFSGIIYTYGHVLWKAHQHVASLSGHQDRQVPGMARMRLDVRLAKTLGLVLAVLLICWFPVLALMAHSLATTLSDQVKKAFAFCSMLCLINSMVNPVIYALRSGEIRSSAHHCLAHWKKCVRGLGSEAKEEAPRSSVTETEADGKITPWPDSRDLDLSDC

Turning to `CCCn1c(C)c(C(=O)c2cccc3ccccc23)c2ccccc21`, the Ki (in general, a dissociation constant, usually derived from enzyme kinetics or from competition with a known ligand) on Cannabinoid receptor 2 [1] worked out at 431 nM; on Cannabinoid receptor 2 [2] it was 269 nM.
In the case of `Cc1c(C(=O)c2cccc3ccccc23)c2cccc3c2n1[C@H](CN1CCOCC1)CO3` [WIN55212-2], the affinity on Cannabinoid receptor 2 [1], expressed as Ki, was 9.46 nM.
Turning to `CCCCCCC(C)(C)c1ccc([C@H]2C[C@@H](O)CC[C@@H]2CCCO)c(O)c1` [CP-56667 [(+)-AC],XV], the Ki at Cannabinoid receptor 2 [1] stood at 0.73 nM; on Cannabinoid receptor 2 [2] it was 0.64 nM.
Molecule `CCCCC/C=C\C/C=C\C/C=C\C/C=C\CCCC(=O)NCCO` [Arachidonoyl ethanolamide] gave an inhibitory constant (Ki) at Cannabinoid receptor 2 [1] of 1480 nM.
On Cannabinoid receptor 2 [1], `CCCCCc1cc(O)c2c(c1)OC(C)(C)[C@@H]1CCC(C)=CC21` (stereo not given in full) [Tetrahydrocannabinol] came in with a Ki of 27.3 nM.
Turning to `CCCCCCC(C)(C)c1ccc2c(c1)OC(C)(C)[C@@H]1CC=C(CO)C[C@@H]21` [JWH-051], the Ki on Cannabinoid receptor 2 [3] stood at 0.33 nM; on Cannabinoid receptor 2 [1], 0.72 nM; at Cannabinoid receptor 2 [2], 3.16 nM.
